Laboratory results: patent US20240382434A1, “CARYOPHYLLENE-CONTAINING COMPOSITION” (SUNSHO PHARMACEUTICAL CO., LTD., priority 2021, published 2024)

Tests used:
Type in all cases: physicochemical
Details in all cases: conclusion in words
[1] = Experiment 2: Dissolution of menthol
Procedure: The amounts (parts by mass (pbm)) of the ingredients shown in the table below were placed into 20-mL lidded glass bottles.
The lidded glass bottles were placed into a water bath set at 25° C. After the temperature reached 25° C., the bottles were kept warm for 30 minutes to adjust the temperature.
The temperature was continuously kept at 25° C. With every 20 minutes, the lidded glass bottles were inverted for mixing and checked visually to see if the menthol had dissolved. The time to complete dissolution was recorded as the time required for the menthol to dissolve. Check was made every 20 minutes until 360 minutes had passed, and then 3 days later, visual check was made again. When the menthol had not dissolved after 3 days, the result was recorded as non-dissolved.

[2] = Experiment 3: Freezing resistance
Procedure: The amounts (parts by mass (pbm)) of the ingredients shown in the table below were mixed and placed into 20-mL lidded glass bottles to dissolve into solutions. The lidded glass bottles were placed into a water bath set at 25° C. After the temperature reached 25° C., the bottles were kept warm for 30 minutes to adjust the temperature.
Then, the glass bottles were placed in a freezer (at approximately −20° C.). The freezer was opened every 30 minutes to visually check if each solution had solidified. The time point when the solution was partially solidified and the time point when the solution was completely solidified were recorded. Check was made every 30 minutes until 360 minutes had passed, and then 3 days later, visual check was made again. When the menthol had not solidified after 3 days, the result was recorded as non-solidified.

[3] = Experiment 1: Volatilization of menthol
Procedure: The prepared compositions were placed in petri dishes and used as test samples.
Each test sample was allowed to volatilize without being covered under room temperature conditions for a certain period of time. The mass of each test sample was measured at a given time point. The volatilization amount and rate were calculated from the measured values.
Similarly, the volatilization amount and rate of a test sample using only caryophyllene were also calculated.
The time constant was calculated from the measurement results [by subtracting the volatilization amount of caryophyllene (theoretical value)].
In the table, the unit of the time constant is hour (h) (the same applies hereinafter).

Q: For Caryophyllene, which “Effect on dissolution of menthol” value [1] is on record?
A: Its value is “enhanced dissolution of menthol”.

Q: What about the “Effect on freezing resistance of the MCT” value [2] of the same substance?
A: The value was “improved freezing resistance of the MCT”.

Q: What about the “Effect on volatilization of menthol” value [3] of the same substance?
A: The value was “enhances volatilization of menthol”.
